ChEMBL document CHEMBL1201862, “PubChem BioAssay data set” (2004)
Activity calls are given as the source filed them.

How the values were obtained:
[1] = target: Polyadenylate-binding protein 1 (Homo sapiens, UniProt P11940); test: PABP inhibition in translation initiation, SAR follow-up (AID 435018); assay type: functional
[2] = target: Eukaryotic translation initiation factor 4H (Homo sapiens, UniProt Q15056); test: eIF4H inhibition in translation initiation, SAR follow-up (AID 435011); assay type: functional
Caspase-3 = target: T1, Caspase-3 (Homo sapiens, UniProt P42574); assay type: functional;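 also: Dose-response selectivity test against caspase-3 for candidate inhibitors of sentrin-specific proteases (SENPs)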
T1 sequence (P42574 whole entry): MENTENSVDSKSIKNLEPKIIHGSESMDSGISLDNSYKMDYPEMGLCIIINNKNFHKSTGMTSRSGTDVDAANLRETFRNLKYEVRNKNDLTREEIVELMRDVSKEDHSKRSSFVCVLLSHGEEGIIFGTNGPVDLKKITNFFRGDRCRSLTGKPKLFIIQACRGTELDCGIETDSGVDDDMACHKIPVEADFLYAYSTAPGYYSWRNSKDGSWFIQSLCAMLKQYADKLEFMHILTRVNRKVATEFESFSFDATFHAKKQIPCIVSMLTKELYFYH

Large T antigen = Large T antigen (Simian virus 40, UniProt P03070); assay type: functional, Betapolyomavirus macacae;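 also: Confirmatory-stage PubChem screen for compounds that inhibit SV40 T antigen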
[3] = target: T2, Sentrin-specific protease 6 (Homo sapiens, UniProt Q9GZR1); assay type: functional;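 also: Luminescence-based dose-response confirmatory assay of SENP6 inhibition, following up an ultra-high-throughput screen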
T2 sequence (Q9GZR1 whole entry): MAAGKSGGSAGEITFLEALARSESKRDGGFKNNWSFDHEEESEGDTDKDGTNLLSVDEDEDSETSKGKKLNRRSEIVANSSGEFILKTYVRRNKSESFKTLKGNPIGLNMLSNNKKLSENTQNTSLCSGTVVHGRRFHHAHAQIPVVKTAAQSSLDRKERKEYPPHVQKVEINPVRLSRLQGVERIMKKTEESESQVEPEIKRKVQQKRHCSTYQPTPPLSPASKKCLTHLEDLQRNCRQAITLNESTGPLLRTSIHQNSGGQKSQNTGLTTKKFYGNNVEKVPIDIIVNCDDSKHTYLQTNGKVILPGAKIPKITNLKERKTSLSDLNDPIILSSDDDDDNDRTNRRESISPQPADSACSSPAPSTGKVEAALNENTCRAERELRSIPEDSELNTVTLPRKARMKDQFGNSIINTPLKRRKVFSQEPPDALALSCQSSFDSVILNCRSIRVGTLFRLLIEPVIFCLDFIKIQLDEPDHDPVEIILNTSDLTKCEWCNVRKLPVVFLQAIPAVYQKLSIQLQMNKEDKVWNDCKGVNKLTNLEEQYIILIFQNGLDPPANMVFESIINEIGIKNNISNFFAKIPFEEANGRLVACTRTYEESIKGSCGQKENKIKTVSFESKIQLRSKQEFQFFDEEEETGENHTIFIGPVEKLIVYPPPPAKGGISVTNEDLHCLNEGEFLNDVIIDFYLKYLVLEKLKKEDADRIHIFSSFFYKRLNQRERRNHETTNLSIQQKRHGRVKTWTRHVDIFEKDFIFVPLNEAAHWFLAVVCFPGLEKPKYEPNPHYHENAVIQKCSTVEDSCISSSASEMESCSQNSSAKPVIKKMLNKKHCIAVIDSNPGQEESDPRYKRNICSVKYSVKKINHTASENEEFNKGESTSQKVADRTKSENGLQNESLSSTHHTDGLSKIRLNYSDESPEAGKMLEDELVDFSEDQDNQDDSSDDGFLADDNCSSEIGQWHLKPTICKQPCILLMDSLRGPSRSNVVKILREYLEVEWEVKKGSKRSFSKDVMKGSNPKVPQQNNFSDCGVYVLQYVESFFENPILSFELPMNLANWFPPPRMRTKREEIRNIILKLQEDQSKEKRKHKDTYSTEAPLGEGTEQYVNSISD

Bcl-2-like protein 10 = Bcl-2-like protein 10 (Homo sapiens, UniProt Q9HD36); test: displacers of TR3 peptide from Bcl-B, primary screen, selectivity assay for Bfl-1 inhibitor project, biochemical, fluorescence polarization, FITC-TR3 peptide (AID 748);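 also: fluorescence polarization from a fluorescein-labelled TR3 peptide binding purified Bcl-B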
[4] = target: T3, Sentrin-specific protease 7 (Homo sapiens, UniProt Q9BQF6); assay type: functional;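 also: Luminescence-based dose-response confirmation of ultra-high-throughput screening hits, measuring inhibition of SENP7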
T3 sequence (Q9BQF6 whole entry): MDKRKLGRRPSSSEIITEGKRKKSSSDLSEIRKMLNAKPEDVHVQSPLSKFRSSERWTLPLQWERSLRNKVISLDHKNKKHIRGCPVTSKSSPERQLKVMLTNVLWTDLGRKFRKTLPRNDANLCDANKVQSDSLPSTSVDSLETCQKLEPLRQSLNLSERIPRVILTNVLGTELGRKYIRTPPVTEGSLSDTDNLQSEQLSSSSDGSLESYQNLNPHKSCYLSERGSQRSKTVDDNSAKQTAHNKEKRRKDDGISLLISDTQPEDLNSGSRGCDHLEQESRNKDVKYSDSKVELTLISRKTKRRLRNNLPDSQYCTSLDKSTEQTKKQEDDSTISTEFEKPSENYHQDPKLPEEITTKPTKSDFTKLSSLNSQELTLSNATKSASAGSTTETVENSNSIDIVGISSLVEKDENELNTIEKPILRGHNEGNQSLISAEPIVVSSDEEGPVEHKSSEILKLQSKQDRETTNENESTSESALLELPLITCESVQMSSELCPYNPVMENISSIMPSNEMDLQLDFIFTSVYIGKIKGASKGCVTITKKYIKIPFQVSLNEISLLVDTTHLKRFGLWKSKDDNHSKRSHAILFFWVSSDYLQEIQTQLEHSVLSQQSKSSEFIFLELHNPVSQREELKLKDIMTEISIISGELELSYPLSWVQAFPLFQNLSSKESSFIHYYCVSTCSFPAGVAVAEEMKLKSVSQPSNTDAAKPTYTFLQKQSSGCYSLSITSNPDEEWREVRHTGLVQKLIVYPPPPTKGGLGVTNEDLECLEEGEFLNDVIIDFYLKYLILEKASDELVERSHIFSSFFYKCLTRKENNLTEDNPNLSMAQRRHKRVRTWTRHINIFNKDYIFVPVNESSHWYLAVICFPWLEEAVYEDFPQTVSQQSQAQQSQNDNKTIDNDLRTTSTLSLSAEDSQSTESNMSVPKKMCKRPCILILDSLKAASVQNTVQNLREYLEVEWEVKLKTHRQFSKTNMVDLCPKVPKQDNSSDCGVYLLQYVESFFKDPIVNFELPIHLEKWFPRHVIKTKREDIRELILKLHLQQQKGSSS

[5] = target: T4, Sentrin-specific protease 8 (Homo sapiens, UniProt Q96LD8); assay type: functional;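 also: luminescence read-out of SENP8 inhibition, dose-response confirmation following an ultra-high-throughput screen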
T4 sequence (Q96LD8 whole entry): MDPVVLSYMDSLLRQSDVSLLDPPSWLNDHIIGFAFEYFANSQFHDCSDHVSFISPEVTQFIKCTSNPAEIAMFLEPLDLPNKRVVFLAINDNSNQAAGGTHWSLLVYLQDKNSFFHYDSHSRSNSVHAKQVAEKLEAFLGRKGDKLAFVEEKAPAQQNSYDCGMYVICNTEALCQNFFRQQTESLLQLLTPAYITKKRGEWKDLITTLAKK

[6] = target: Delta-type opioid receptor (Homo sapiens, UniProt P41143); test: SAR Analysis of Antagonists of the DOR Receptor using an Image-Based Assay - Set 3. [Related pubchem assays (depositor defined):AID1777, AID1785]; assay type: functional;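 also: U2OS cells expressing DOR1 and beta-arrestin GFP stimulated with 100 nM SNC80; imaging of GFP-tagged beta-arrestin moving into spots after receptor activation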
[7] = target: T5, Kappa-type opioid receptor (Homo sapiens, UniProt P41145); test: SAR analysis of Antagonists of the Kappa Opioid Receptor (KOR) using an Image-Based Assay - Set 3. [Related pubchem assays (depositor defined):AID1777, AID1785]; assay type: functional
Mu-type opioid receptor = Mu-type opioid receptor (Homo sapiens, UniProt P35372); test: SAR Analysis of Antagonists of the MOR Receptor using an Image-Based Assay - Set 3. [Related pubchem assays (depositor defined):AID1777, AID1785, AID1786, AID1966, AID2133, AID2136, AID2284, AID2285, AID2420]; assay type: functional
[8] = target: T5, Kappa-type opioid receptor; test: SAR analysis of small molecule antagonists of the kappa opioid receptor via a luminescent beta-arrestin assay - Set 3. [Related pubchem assays (depositor defined):AID1777, AID1778, AID1785, AID1786, AID1966, AID2133, AID2136, AID2285, AID2495]; assay type: functional
CAAX prenyl protease 2 = CAAX prenyl protease 2 (Saccharomyces cerevisiae S288c, UniProt Q03530); assay type: biochemical
Chain of CAAX prenyl protease 2 (Q03530 whole entry): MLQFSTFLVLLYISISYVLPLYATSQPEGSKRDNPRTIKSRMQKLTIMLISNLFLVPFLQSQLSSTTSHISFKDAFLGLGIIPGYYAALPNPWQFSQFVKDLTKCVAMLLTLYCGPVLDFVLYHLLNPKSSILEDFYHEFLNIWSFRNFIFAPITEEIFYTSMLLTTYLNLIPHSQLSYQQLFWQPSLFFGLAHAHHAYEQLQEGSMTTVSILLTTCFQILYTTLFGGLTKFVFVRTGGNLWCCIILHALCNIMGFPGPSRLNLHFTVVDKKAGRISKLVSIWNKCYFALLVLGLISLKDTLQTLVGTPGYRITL

T5 sequence (P41145 whole entry): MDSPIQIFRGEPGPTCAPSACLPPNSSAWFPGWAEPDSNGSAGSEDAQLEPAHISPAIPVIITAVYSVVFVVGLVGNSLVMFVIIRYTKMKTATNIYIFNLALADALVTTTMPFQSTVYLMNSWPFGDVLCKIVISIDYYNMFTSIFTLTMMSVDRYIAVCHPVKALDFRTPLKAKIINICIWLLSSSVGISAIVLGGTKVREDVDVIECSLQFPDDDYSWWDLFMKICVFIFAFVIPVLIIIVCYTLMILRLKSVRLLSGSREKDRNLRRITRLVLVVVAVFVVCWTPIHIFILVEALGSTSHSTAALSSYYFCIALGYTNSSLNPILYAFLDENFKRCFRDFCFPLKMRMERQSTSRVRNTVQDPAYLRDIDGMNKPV
Chain of Delta-type opioid receptor (P41143 whole entry): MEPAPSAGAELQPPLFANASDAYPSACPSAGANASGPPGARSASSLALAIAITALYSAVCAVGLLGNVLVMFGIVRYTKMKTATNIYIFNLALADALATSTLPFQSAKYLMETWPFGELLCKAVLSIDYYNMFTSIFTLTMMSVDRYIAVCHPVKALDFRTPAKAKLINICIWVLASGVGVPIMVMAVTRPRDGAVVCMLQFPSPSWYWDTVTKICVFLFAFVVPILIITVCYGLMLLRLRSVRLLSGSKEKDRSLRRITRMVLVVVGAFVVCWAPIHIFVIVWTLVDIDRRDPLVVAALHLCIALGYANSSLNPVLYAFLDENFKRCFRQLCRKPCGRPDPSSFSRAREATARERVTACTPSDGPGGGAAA
Chain of Polyadenylate-binding protein 1 (P11940 whole entry): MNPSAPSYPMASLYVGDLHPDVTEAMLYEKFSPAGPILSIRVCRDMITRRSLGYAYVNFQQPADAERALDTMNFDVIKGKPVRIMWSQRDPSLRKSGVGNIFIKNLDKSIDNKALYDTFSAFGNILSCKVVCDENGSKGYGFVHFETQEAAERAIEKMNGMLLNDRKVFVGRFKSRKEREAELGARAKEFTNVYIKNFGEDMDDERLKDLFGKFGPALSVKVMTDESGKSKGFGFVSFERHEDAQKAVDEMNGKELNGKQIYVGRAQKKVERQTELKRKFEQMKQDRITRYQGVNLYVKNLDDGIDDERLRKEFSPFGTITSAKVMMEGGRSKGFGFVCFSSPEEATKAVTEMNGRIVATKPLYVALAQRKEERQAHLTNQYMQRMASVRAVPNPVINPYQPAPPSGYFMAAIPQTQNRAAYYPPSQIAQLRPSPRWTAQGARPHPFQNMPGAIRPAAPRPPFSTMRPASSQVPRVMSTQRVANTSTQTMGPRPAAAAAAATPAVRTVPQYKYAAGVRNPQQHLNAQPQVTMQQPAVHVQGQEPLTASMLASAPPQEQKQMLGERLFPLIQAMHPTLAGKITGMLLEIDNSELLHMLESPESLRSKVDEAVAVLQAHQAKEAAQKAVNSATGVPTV
Chain of Mu-type opioid receptor (P35372 whole entry): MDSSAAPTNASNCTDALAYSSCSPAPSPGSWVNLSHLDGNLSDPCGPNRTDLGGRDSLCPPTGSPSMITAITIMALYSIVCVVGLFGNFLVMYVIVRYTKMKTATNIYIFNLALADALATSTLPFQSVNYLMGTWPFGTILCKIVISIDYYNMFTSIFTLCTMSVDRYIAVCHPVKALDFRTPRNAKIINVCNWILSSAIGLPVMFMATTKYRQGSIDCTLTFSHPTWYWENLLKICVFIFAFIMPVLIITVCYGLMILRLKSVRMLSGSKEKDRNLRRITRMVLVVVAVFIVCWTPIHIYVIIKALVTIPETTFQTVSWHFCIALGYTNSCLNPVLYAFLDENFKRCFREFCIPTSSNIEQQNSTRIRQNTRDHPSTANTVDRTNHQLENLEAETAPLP
Chain of Bcl-2-like protein 10 (Q9HD36 whole entry): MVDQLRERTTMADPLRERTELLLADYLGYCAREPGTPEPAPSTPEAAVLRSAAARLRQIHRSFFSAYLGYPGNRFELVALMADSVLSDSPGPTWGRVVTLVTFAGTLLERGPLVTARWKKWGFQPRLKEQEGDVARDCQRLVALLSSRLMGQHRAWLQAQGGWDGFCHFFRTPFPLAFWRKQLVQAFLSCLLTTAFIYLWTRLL
Chain of Large T antigen (P03070 whole entry): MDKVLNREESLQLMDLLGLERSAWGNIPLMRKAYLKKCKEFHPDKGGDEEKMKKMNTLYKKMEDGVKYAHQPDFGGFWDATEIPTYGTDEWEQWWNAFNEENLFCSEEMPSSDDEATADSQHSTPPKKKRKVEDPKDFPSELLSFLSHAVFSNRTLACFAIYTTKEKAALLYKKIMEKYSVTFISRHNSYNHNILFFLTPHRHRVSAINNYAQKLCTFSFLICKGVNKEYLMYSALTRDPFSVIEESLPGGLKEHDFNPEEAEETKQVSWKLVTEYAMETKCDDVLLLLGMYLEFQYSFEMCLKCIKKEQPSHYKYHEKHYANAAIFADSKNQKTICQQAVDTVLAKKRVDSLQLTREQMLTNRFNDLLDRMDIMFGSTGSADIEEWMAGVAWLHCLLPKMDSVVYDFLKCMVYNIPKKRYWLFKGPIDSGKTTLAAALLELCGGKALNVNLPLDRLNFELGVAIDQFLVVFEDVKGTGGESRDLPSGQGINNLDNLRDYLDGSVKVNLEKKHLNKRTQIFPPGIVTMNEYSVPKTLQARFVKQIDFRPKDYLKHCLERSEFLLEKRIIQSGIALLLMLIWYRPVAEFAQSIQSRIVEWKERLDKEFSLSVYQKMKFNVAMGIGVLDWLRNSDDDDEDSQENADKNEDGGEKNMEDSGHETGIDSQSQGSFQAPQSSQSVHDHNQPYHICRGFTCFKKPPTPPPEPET

Row | Structure (SMILES) | IC50 [1] | IC50 [2] | IC50 [6] | IC50 [7] | IC50 (Mu-type opioid receptor) | IC50 [8] | also measured
1 | CS(=O)(=O)c1ccccc1C(=O)Nc1cccc2ncccc12 | 20.2 µM (active) | 16.1 µM (active) |  |  |  |  | 
2 | O=C(Nc1ccccc1Cl)C1CCN(C(=O)c2cccs2)CC1 | > 100 µM (inactive) | > 100 µM (inactive) |  |  |  |  | 
3 | Cc1csc(N/N=C/c2ccc(O)c([N+](=O)[O-])c2)n1 |  |  |  |  |  |  | IC50 (Caspase-3): 3.15 µM (active); IC50 (Large T antigen): 22.1 µM (active); IC50 [3]: 9.25 µM (active); IC50 (Bcl-2-like protein 10): > 100 µM (inactive); IC50 [4]: 4.19 µM (active); IC50 [5]: 8.45 µM (active)
4 | CN1CCN(CCCNC(=O)Cn2c(=O)c3cccn3c3cccnc32)CC1 |  |  | > 32 µM (inactive) | > 32 µM (inactive) | > 32 µM (inactive) | > 20 µM (inactive) | 
5 | O=S(=O)(c1ccccc1)c1nc(-c2ccco2)oc1N1CCCCC1 |  |  |  |  |  |  | AC50 (CAAX prenyl protease 2): 7.38 µM (active)
6 | O=C(NCCN1Cc2ccccc2C1)c1ccc(CNS(=O)(=O)c2ccc(Br)cc2)cc1 |  |  | > 32 µM (inactive) | > 32 µM (inactive) | > 32 µM (inactive) | > 20 µM (inactive) | 
